# Assay results from patent US20230085307A1, “PYRIDAZINONE COMPOUND AND HERBICIDE” (NISSAN CHEMICAL CORPORATION, priority 2019, published 2023).
# Assays:
# blackgrass [1] = assay: Test Example 5: herbicidal effect by foliage application, plastic box (Table 20, symbol J); format: in vivo, blackgrass (Alopecurus myosuroides); settings: foliage application; for effect on blackgrass (J): 320 g/ha, 3 weeks after application
# Method in brief: (§1)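 Post-emergence foliar test in sterilized diluvial soil. Compound applied as water-diluted emulsion at a predetermined rate to 14-day-old plants; evaluation at three weeks.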
# chickweed [2] = assay: Test Example 4: herbicidal effect by soil treatment (Table 19, symbol P); format: in vivo, common chickweed (Stellaria media); settings: for P: chickweed, herbicidal effect rating: AAH 320 g/ha
# Method in brief: (§2)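 Emulsion of test compound, water-diluted to predetermined amount, sprayed on soil after sowing (seed depth ~1.5 cm, sterilized diluvial soil). Greenhouse, 25–30° C. Effect graded at three weeks post-spray.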
# wild oat = assay: Test Example 4: herbicidal effect by soil treatment (Table 19, symbol I); format: in vivo, wild oat (Avena fatua); settings: for I: wild oat, herbicidal effect rating: AAH 320 g/ha
# Method in brief: as §2
# redroot pigweed [3] = assay: Test Example 4: herbicidal effect by soil treatment (Table 19, symbol N); format: in vivo, redroot pigweed (Amaranthus retroflexus); settings: for N: redroot pigweed, herbicidal effect rating: AAH 320 g/ha
# Method in brief: as §2
# green foxtail [4] = assay: Test Example 4: herbicidal effect by soil treatment (Table 19, symbol G); format: in vivo, green foxtail (Setaria viridis); settings: for G: green foxtail, herbicidal effect rating: AAH 320 g/ha
# Method in brief: as §2
# persian speedwell = assay: Test Example 4: herbicidal effect by soil treatment (Table 19, symbol R); format: in vivo, Persian speedwell (Veronica persica); settings: for R: persian speedwell, herbicidal effect rating: AAH 320 g/ha
# Method in brief: as §2
# barnyard grass = assay: Test Example 5: herbicidal effect by foliage application, plastic box (Table 20, symbol H); format: in vivo, barnyard grass (Echinochloa crus-galli); settings: foliage application; for effect on barnyard grass (H): 320 g/ha, 3 weeks after application
# Method in brief: as §1
# late watergrass = assay: Test Example 2: herbicidal activity, application during weed generation under submerged conditions (Table 17, symbol A); format: in vivo, late watergrass (Echinochloa oryzicola); settings: AAH 320 g/ha; application during weed generation, submerged conditions
# Method in brief: (§3)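 Wagner pot, alluvial soil, 4 cm flood; mixed sowing of all species; greenhouse 25° C.–30° C. Emulsifiable formulation, water-diluted to predetermined dose, applied to paddy water at 1–2 leaf stage. Effect rated at 3 wk using the earlier test's scoring criteria.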
# green foxtail [5] = assay: Test Example 5: herbicidal effect by foliage application, plastic box (Table 20, symbol G); format: in vivo, green foxtail (Setaria viridis); settings: foliage application; for effect on green foxtail (G): 320 g/ha, 3 weeks after application
# Method in brief: as §1
# blackgrass [6] = assay: Test Example 4: herbicidal effect by soil treatment (Table 19, symbol J); format: in vivo, blackgrass (Alopecurus myosuroides); settings: AAH 320 g/ha
# Method in brief: as §2
# rice flat sedge = assay: Test Example 3: herbicidal effect by foliage application, Wagner pot (Table 18, symbol E); format: in vivo, rice flat sedge (Cyperus iria); settings: for herbicidal effect on E (rice flat sedge), rating 0-5: 320 g/ha
# Method in brief: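 Plants were sown in alluvial soil held under 0.1–0.5 cm standing water and grown 14 days in a greenhouse at 25–30 °C. An emulsifiable formulation, water-diluted to the set dose, was then sprayed onto the foliage, and effects were scored three weeks later using previously defined criteria.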
# oval-leafed pondweed [7] = assay: Test Example 1: herbicidal activity, application before weed generation under submerged conditions (Table 16, symbol C); format: in vivo, oval-leafed pondweed (Monochoria vaginalis); settings: 320 g/ha applied herbicide
# Method in brief: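 Submerged Wagner pots (alluvial soil, 4 cm water) sown with weed seeds and planted with 2.5-leaf rice seedlings; emulsifiable concentrate diluted in water applied to water surface on sowing day. Held in greenhouse at 25-30 °C; injury scored 0-5 by herbicidal rate after three weeks.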
# oval-leafed pondweed [8] = assay: Test Example 2: herbicidal activity, application during weed generation under submerged conditions (Table 17, symbol C); format: in vivo, oval-leafed pondweed (Monochoria vaginalis); settings: AAH 320 g/ha; application during weed generation, submerged conditions
# Method in brief: as §3
# Italian ryegrass = assay: Test Example 4: herbicidal effect by soil treatment (Table 19, symbol K); format: in vivo, Italian ryegrass (Lolium multiflorum); settings: for K: Italian ryegrass, herbicidal effect rating: AAH 320 g/ha
# Method in brief: as §2
# redroot pigweed [9] = assay: Test Example 5: herbicidal effect by foliage application, plastic box (Table 20, symbol N); format: in vivo, redroot pigweed (Amaranthus retroflexus); settings: foliage application, AAH 320 g/ha, evaluated three weeks after application
# Method in brief: as §1
# chickweed [10] = assay: Test Example 5: herbicidal effect by foliage application, plastic box (Table 20, symbol P); format: in vivo, common chickweed (Stellaria media); settings: foliage application, AAH 320 g/ha, evaluated three weeks after application
# Method in brief: as §1
# [11] = AAH 320 g/ha, evaluated three weeks after application
# [12] = amount of applied herbicide 320 g/ha
Structure (SMILES),effect on blackgrass (J) (blackgrass [1]),"P: chickweed, herbicidal effect rating (chickweed [2])","I: wild oat, herbicidal effect rating (wild oat)","N: redroot pigweed, herbicidal effect rating (redroot pigweed [3])","G: green foxtail, herbicidal effect rating (green foxtail [4])","R: persian speedwell, herbicidal effect rating (persian speedwell)",effect on barnyard grass (H) (barnyard grass),"herbicidal effect rating, A: late watergrass (late watergrass)",effect on green foxtail (G) (green foxtail [5]),"J: blackgrass, herbicidal effect rating (blackgrass [6])","herbicidal effect on E (rice flat sedge), rating 0-5 (rice flat sedge)",Herbicidal effect on C: oval-leafed pondweed (grade 0-5) (oval-leafed pondweed [7]),"herbicidal effect rating, C: oval-leafed pondweed (oval-leafed pondweed [8])","K: Italian ryegrass, herbicidal effect rating (Italian ryegrass)",also measured
Cc1nn(C)c(=O)c(-c2c(-c3ccc(OC(F)F)cc3)sc3ccccc23)c1O [1-201],4 (Herbicidal rate of 70% or more and less than 90%),4 (Herbicidal rate of 70% or more and less than 90%),0 (Herbicidal rate of 5% or less (almost no effect)),5 (Herbicidal rate of 90% or more (almost completely withered)),5 (Herbicidal rate of 90% or more (almost completely withered)),5 (Herbicidal rate of 90% or more (almost completely withered)),5 (Herbicidal rate of 90% or more (almost completely withered)),0 (Herbicidal rate of 5% or less (almost no effect)),5 (Herbicidal rate of 90% or more (almost completely withered)),0 (Herbicidal rate of 5% or less (almost no effect)),5 (Herbicidal rate of 90% or more (almost completely withered)),1 (Herbicidal rate of 5% or more and less than 20%),3 (Herbicidal rate of 40% or more and less than 70%),4 (Herbicidal rate of 70% or more and less than 90%),
Cc1nn(C)c(=O)c(-c2c(-c3ccc(OCC(F)F)cc3)sc3ccccc23)c1O [1-203],2 (Herbicidal rate of 20% or more and less than 40%),5 (Herbicidal rate of 90% or more (almost completely withered)),1 (Herbicidal rate of 5% or more and less than 20%),5 (Herbicidal rate of 90% or more (almost completely withered)),5 (Herbicidal rate of 90% or more (almost completely withered)),5 (Herbicidal rate of 90% or more (almost completely withered)),5 (Herbicidal rate of 90% or more (almost completely withered)),4 (Herbicidal rate of 70% or more and less than 90%),5 (Herbicidal rate of 90% or more (almost completely withered)),3 (Herbicidal rate of 40% or more and less than 70%),5 (Herbicidal rate of 90% or more (almost completely withered)),4 (Herbicidal rate of 70% or more and less than 90%),4 (Herbicidal rate of 70% or more and less than 90%),5 (Herbicidal rate of 90% or more (almost completely withered)),
COCCOCOc1c(C)nn(C)c(=O)c1-c1c(-c2ccc(OCCSC)cc2)sc2ccccc12 [1-221],5 (Herbicidal rate of 90% or more (almost completely withered)),4 (Herbicidal rate of 70% or more and less than 90%),0 (Herbicidal rate of 5% or less (almost no effect)),5 (Herbicidal rate of 90% or more (almost completely withered)),5 (Herbicidal rate of 90% or more (almost completely withered)),5 (Herbicidal rate of 90% or more (almost completely withered)),5 (Herbicidal rate of 90% or more (almost completely withered)),5 (Herbicidal rate of 90% or more (almost completely withered)),5 (Herbicidal rate of 90% or more (almost completely withered)),0 (Herbicidal rate of 5% or less (almost no effect)),5 (Herbicidal rate of 90% or more (almost completely withered)),3 (Herbicidal rate of 40% or more and less than 70%),3 (Herbicidal rate of 40% or more and less than 70%),5 (Herbicidal rate of 90% or more (almost completely withered)),
C#CCSCc1ccc(-c2sc3ccccc3c2-c2c(O)c(C)nn(C)c2=O)cc1 [1-247],0 (Herbicidal rate of 5% or less (almost no effect)),4 (Herbicidal rate of 70% or more and less than 90%),0 (Herbicidal rate of 5% or less (almost no effect)),3 (Herbicidal rate of 40% or more and less than 70%),0 (Herbicidal rate of 5% or less (almost no effect)),4 (Herbicidal rate of 70% or more and less than 90%),4 (Herbicidal rate of 70% or more and less than 90%),3 (Herbicidal rate of 40% or more and less than 70%),4 (Herbicidal rate of 70% or more and less than 90%),0 (Herbicidal rate of 5% or less (almost no effect)),4 (Herbicidal rate of 70% or more and less than 90%),0 (Herbicidal rate of 5% or less (almost no effect)),0 (Herbicidal rate of 5% or less (almost no effect)),3 (Herbicidal rate of 40% or more and less than 70%),
COCCSCc1ccc(-c2sc3ccc(F)cc3c2-c2c(O)c(C)nn(C)c2=O)cc1 [2-327],,,,,,,,0 (Herbicidal rate of 5% or less (almost no effect)),,,,3 (Herbicidal rate of 40% or more and less than 70%),0 (Herbicidal rate of 5% or less (almost no effect)),,"J: blackgrass, herbicidal effect (criteria 0-5) (blackgrass [1]; [11]): 4 (Herbicidal rate of 70% or more and less than 90%); N: redroot pigweed, herbicidal effect (criteria 0-5) (redroot pigweed [9]): 5 (Herbicidal rate of 90% or more (almost completely withered)); herbicidal effect on P: chickweed (chickweed [2]; [12]): 1 (Herbicidal rate of 5% or more and less than 20%); herbicidal effect on I: wild oat (wild oat; [12]): 0 (Herbicidal rate of 5% or less (almost no effect)); herbicidal effect on N: redroot pigweed (redroot pigweed [3]; [12]): 4 (Herbicidal rate of 70% or more and less than 90%); herbicidal effect on G: green foxtail (green foxtail [4]; [12]): 4 (Herbicidal rate of 70% or more and less than 90%); herbicidal effect on R: persian speedwell (persian speedwell; [12]): 5 (Herbicidal rate of 90% or more (almost completely withered)); H: barnyard grass, herbicidal effect (criteria 0-5) (barnyard grass; [11]): 5 (Herbicidal rate of 90% or more (almost completely withered)); G: green foxtail, herbicidal effect (criteria 0-5) (green foxtail [5]; [11]): 5 (Herbicidal rate of 90% or more (almost completely withered)); P: chickweed, herbicidal effect (criteria 0-5) (chickweed [10]): 5 (Herbicidal rate of 90% or more (almost completely withered)); herbicidal effect on E: rice flat sedge (rice flat sedge; [12]): 4 (Herbicidal rate of 70% or more and less than 90%); herbicidal effect on K: Italian ryegrass (Italian ryegrass; [12]): 4 (Herbicidal rate of 70% or more and less than 90%)"
